In publication PMC10892451, “Evaluation of the Antibacterial Activity of New Dermaseptin Derivatives against Acinetobacter baumannii” (Pharmaceuticals, 2024):
≈ marks a conversion by molar mass, not a printed value. Ends that are not written are not given here.

Columns and labels:
[1] = system: A. baumannii clinical specimen MDR; assay: microbe, parasite or virus in culture; settings: for A. baumannii MIC: broth microdilution, Mueller-Hinton broth, 5 × 10^5 CFU/mL, 24 h at 37 °C, clinical MDR isolate, triplicate
Description: (§1) The bacterial strain used in the present study came from the stock culture of the microbiology laboratory of the Federal University of the Delta of Parnaíba—UFDPar, Parnaíba—PI, Brazil. The strain used in the tests was A. baumannii clinical specimen MDR (multidrug resistant), which developed resistance to major antibiotic classes and carbapenem-resistant isolates. Before performing all experiments, the selected strains were cultured in Petri dishes containing Mueller-Hinton agar (Difco™, Piaui, Brazil). Then, under aerobic conditions, they were incubated in a bacteriological oven for 24 h at 35 ± 2 °C. After incubation, the colonies that grew alone were collected with a disposable bacteriological loop and suspended in a sterile saline solution (0.85% NaCl (w/v), Parnaíba—UFDPar, Piaui, Brazil) in order to reach an absorbance pattern between 0.08 and 0.13 at 625 nm, as tested with a UV-vis spectrophotometer (Shimadzu, Japan), thus corresponding to 0.5 McFarland scale (1–2 × 10^8 CFU/mL), as recommended by the Clinical Laboratory Standards Institute CLSI [75]. Once standardized, the obtained bacterial suspension was used to prepare the bacterial inoculum used in the execution of MIC determination protocols.
(§2) In accordance with the standards recommended by CLSI [75], the antibacterial potential of the peptides was evaluated with the method of determining the MIC, i.e., the broth microdilution method. Using a 96-well microdilution plate (KASVI, Parnaíba, Brazil), the antibacterial effect was analyzed against the bacterial strains. Therefore, 5 μL of each peptide was added to the first line of the microtiter wells containing 195 μL Mueller-Hinton (M-H) broth (Life Technologies, New York, NY, USA), followed by two-fold serial dilutions with final concentrations ranging from 25 µg/mL to 0.19 µg/mL for all peptides. The volume of the bacterial inoculum was equal to 50 µL, which was added to the test wells with the M-H broth at the beginning of the experiment to give a final concentration of 5 × 10^5 CFU/mL and to reach a final volume of 100 μL in each well after discarding the last additional volume of 100 μL following the serial dilution. MIC was defined as the lowest concentration of an antibacterial agent expressed in μg/mL, which, under strictly controlled in vitro conditions, completely prevents visible bacterial growth after incubation for 24 h at 37 °C in aerobic conditions. […] All tests were performed in triplicate. In order to guarantee the quality and safety of the protocols of this study, the manipulation of bacterial strains was performed under aseptic conditions.

[2] = system: A. baumannii clinical specimen MDR; assay: microbe, parasite or virus in culture; settings: for A. baumannii MBC: 10 μL of wells at or above MIC seeded onto Mueller-Hinton agar, clinical MDR isolate, triplicate
Description: After determining the MIC, the MBC was assessed against A. baumannii MDR. Meropenem was used as an antibacterial control drug. The loaded solvent saline served as a negative control. […] Meropenem targets Gram-positive and Gram-negative bacteria, as well as anaerobic bacteria. Similar to other carbapenems, meropenem disrupts the synthesis of bacterial cell walls, inhibiting growth and leading to cell death.
as §1, §2

[3] = system: HEp-2 cells; assay: MTT cytotoxicity assay on HEp-2 cells; format: cell-based, human; settings: peptide concentration causing 50% cytotoxicity, 72 h treatment, 1.5-100 μg/mL, triplicate at three different times
Description: It was obtained from the American Type Culture Collection (ATCC, Manassas, VA, USA). Cells were routinely maintained in a humidified atmosphere of 5% CO2 at 37 °C. The Culture Medium Dulbecco’s Modified Eagle Medium (DMEM) (Biofaster, Tunis, Tunisia) was supplemented with 1% L-glutamine, 1% penicillin/streptomycin and 10% (v/v) heat inactivated fetal bovine serum (FBS)(Biofaster, Tunis, Tunisia).
The cytotoxicity test consisted of measuring the viability of cells in culture when they came into contact with the peptides being tested. Cytotoxicity was determined using the 3-(4,5-dimethylthiazol-2-yl)-2,5-diphenyl tetrazolium bromide (MTT) colorimetric assay on cultured cells (HEp-2 lines). […] After 72 h of incubation, the supernatant was collected and the viability of the cells treated with the peptides was determined by the MTT method. […] After 4 h of incubation at 37 °C, the optical density (OD) was measured at 570 nm using an ELISA reader (Multiskan EX, Labsystems, Paris, France), after adding 100 μL of DMSO to dissolve the crystals of formazan. The results were expressed as a percentage of viability relative to the negative control without a peptide, according to the formula: (Viability percentage = (DO544 nm peptide/DO544 nm control) × 100). […]

[4] = system: A. baumannii MDR; assay: AFM average surface roughness of treated bacteria; format: cell-based, Acinetobacter baumannii; settings: AFM tapping mode, bacteria from MIC assay wells after 24 h, n = 10 areas of 0.3 × 0.3 µm; non-treated bacteria 25.77 nm
Text: In order to understand how our cationic peptide eliminates bacteria, we must consider its effect on the outer membrane found in Gram-negative bacteria. Here, we use atomic force microscopy (AFM) to directly investigate K4S4(1-16) interactions with the outer membrane of A. baumannii and characterize the biophysical consequences of K4S4(1-16) treatment. However, Gram-negative bacteria are complex organisms, with two membranes and molecular machinery dedicated to maintaining membrane stability. The images show the morphology of a clinical strain of A. baumannii before and after treatment with the derivative. […] The cell differed considerably from the cocci-bacilli-shaped cell observed without peptide treatment. Therefore, this cationic peptide appears to have a highly disruptive effect. […]
With the objective of observing possible morphological alterations caused by the action of an active peptide from the DRS families, bacterial growth control and bacteria treated with K4S4 (1-16) were evaluated using Atomic Force Microscopy (AFM). […]
Statistical analyses were performed with the GraphPad Prism 9.0 software (GraphPad Software Inc.) for cell viability assays. The difference between the average roughness (Ra) was statistically analyzed using t Test in the GraphPad Prism 8.0 software. […]

[5] = system: HEp-2 cells; settings: cited from earlier work
Description: (§3) Cells were exposed to increasing concentrations of peptides, ranging from 1.5 to 100 μg/mL. The cytotoxicity of DRSs was concentration dependent, and peptide 50% cytotoxic concentration (CC50) values were determined (Table 2).

[6] = cited from earlier work
[7] = cited from earlier work; remark: listed apart in the source
Description: as §3

[8] = system: multi-drug resistant Salmonella Enteritidis; settings: cited from earlier work

Molecule	A. baumannii MIC [1]	A. baumannii MBC [2]	other results
C[C@@H](O)[C@H]1C(=O)N2C(C(=O)O)=C(S[C@@H]3CN[C@H](C(=O)N(C)C)C3)[C@H](C)[C@H]12 [meropenem]	–	–	MIC ([1]; Acinetobacter baumannii, 24 h, read-out: A. baumannii MIC): 32 µg/mL (≈ 83.4 µM); MBC ([2]; Acinetobacter baumannii, read-out: A. baumannii MBC): 64 µg/mL (≈ 167 µM)
ALWKTLLKKVLKAAAK [K4S4(1-16)]	6.25 µg/mL	12.5 µg/mL	CC50 Hep-2 Cells [3]: 68.9 µg/mL; roughness on the cell surface after treatment [4]: 43.41 nm
ALWKTLLKKVLKAAAKAALKAVLVGANA [K4K20S4]	3.125 µg/mL	6.25 µg/mL	–
ALWMTLLKKVLKAAAKAALNAVLVGANA-OH [S4]	12.5 µg/mL	25 µg/mL	maximal non-cytotoxic concentration [5]: 16 µg/mL; hemolytic effect [6]: potent hemolytic effect
GLKKKIKEVGKEAAKAAAKAAGKAALGAVSEAV [K3K4B2]	6.25 µg/mL	12.5 µg/mL	–
GLWSKIKEVGKEAAKAAAKAAGKAALGAVSEAV-OH [B2]	12.5 µg/mL	25 µg/mL	–
lactoferricin (17–30): other AMP from the literature (CLAAPRKNVRWCTI; ends and bridges not checked; cysteine pairing not given here; UniProt P24627 17-30, looked up, fragment)	–	–	cytotoxicity at lower concentrations ([7]; 1X and 2X MIC): negligible cytotoxicity; cytotoxicity at 4X MIC ([7]; 4X MIC): slightly higher cytotoxicity; MIC [8]: 128 µg/mL
